Laboratory results from patent US8293732B2, “Antibacterial quinoline derivatives” (Janssen Pharmaceutica N.V., priority 2006, dated 2012).
Converted amounts (≈) assume the structure as drawn.

Legend:
Format in all cases: cell-based
[1] = tested on: Staphylococcus aureus (ATCC29213); experiment: In-vitro anti-bacterial microtitre plate assay, IC90 determination (STA 1 B29213); conditions: 90% inhibitory concentration for bacterial growth, 37° C., resazurin fluorescence; for IC90: Staphylococcus aureus, ATCC29213, 24 h; for IC90 values STA 1 B29213: 24 hours
Protocol: (§1) The bacteria used in this study were grown overnight in flasks containing 100 ml Mueller-Hinton Broth (Becton Dickinson—cat. no. 275730) in sterile de-ionized water, with shaking, at 37° C. Stocks (0.5 ml/tube) were stored at −70° C. until use. Bacteria titrations were performed in microtiter plates to detect the TCID50, in which the TCID50 represents the dilution that gives rise to bacterial growth in 50% of inoculated cultures.
(§2) In general, an inoculum level of approximately 100 TCID50 was used for susceptibility testing.
(§3) Flat-bottom, sterile 96-well plastic microtiter plates were filled with 180 μl of sterile deionized water, supplemented with 0.25% BSA. Subsequently, stock solutions (7.8× final test concentration) of compounds were added in 45 μl volumes in column 2. Serial five-fold dilutions (45 μl in 180 μl) were made directly in the microtiter plates from column 2 to reach column 11. Untreated control samples with (column 1) and without (column 12) inoculum were included in each microtiter plate. Depending on the bacteria type, approximately 10 to 60 CFU per well of bacteria inoculum (100 TCID50), in a volume of 100 μl in 2.8× Mueller-Hinton broth medium, was added to the rows A to H, except column 12. The same volume of broth medium without inoculum was added to column 12 in row A to H. The cultures were incubated at 37° C. for 24 hours under a normal atmosphere (incubator with open air valve and continuous ventilation). At the end of incubation, one day after inoculation, the bacterial growth was quantitated fluorometrically. Therefore resazurin (0.6 mg/ml) was added in a volume of 20 μl to all wells 3 hours after inoculation, and the plates were re-incubated overnight. A change in colour from blue to pink indicated the growth of bacteria. The fluorescence was read in a computer-controlled fluorometer (Cytofluor Biosearch) at an excitation wavelength of 530 nm and an emission wavelength of 590 nm. The % growth inhibition achieved by the compounds was calculated according to standard methods.
(§4) STA 29213 means Staphylococcus aureus (ATCC29213); SPN 6305 means Streptococcus pneumoniae (ATCC6305); MSM 607 means M. Smegmatis (ATCC607); ATCC means […].

[2] = tested on: Streptococcus pneumoniae (ATCC6305); experiment: In-vitro anti-bacterial microtitre plate assay, IC90 determination (SPN 1 6305); conditions: 90% inhibitory concentration for bacterial growth, 37° C., resazurin fluorescence; for IC90: Streptococcus pneumoniae, ATCC6305, 24 h; for IC90 values SPN 1 6305: 24 hours
Protocol: as §1, §2, §3, §4

M. Smegmatis (ATCC607) = experiment: In-vitro anti-bacterial activity against strain M. Smegmatis ATCC607; conditions: 90% inhibitory concentration for bacterial growth, 37° C., Alamar Blue fluorescence; for IC90: Mycolicibacterium smegmatis, ATCC607, 48 h, read-out: IC90 values MSM 1 ATCC607; for IC90 values MSM 1 ATCC607: 48 hours
Protocol: Flat-bottom, sterile 96-well plastic microtiter plates were filled with 180 μl of sterile deionized water, supplemented with 0.25% BSA. Subsequently, stock solutions (7.8× final test concentration) of compounds were added in 45 μl volumes to a series of duplicate wells in column 2 so as to allow evaluation of their effects on bacterial growth. Serial five-fold dilutions (45 μl in 180 μl) were made directly in the microtiter plates from column 2 to 11 using a customised robot system (Zymark Corp., Hopkinton, Mass.). Pipette tips were changed after every 3 dilutions to minimize pipetting errors with high hydrophobic compounds. Untreated control samples with (column 1) and without (column 12) inoculum were included in each microtiter plate. Approximately 250 CFU per well of bacteria inoculum, in a volume of 100 μl in 2.8× Mueller-Hinton broth medium, was added to the rows A to H, except column 12. The same volume of broth medium without inoculum was added to column 12 in row A to H. The cultures were incubated at 37° C. for 48 hours in a humidified 5% CO2 atmosphere (incubator with open air valve and continuous ventilation). At the end of incubation, two days after inoculation, the bacterial growth was quantitated fluorometrically. Therefore Alamar Blue (10×) was added to all wells in a volume of 20 μl and plates were incubated for another 2 hours at […]
The fluorescence was read in a computer-controlled fluorometer (Cytofluor, Biosearch) at an excitation wavelength of 530 nm and an emission wavelength of 590 nm (gain 30).
as §4

IC90 [1] | IC90 [2] | IC90 values STA 1 B29213 [1] | IC90 values SPN 1 6305 [2] | Structure (SMILES) | IC90 (M. Smegmatis (ATCC607)) | IC90 values MSM 1 ATCC607 (M. Smegmatis (ATCC607))
1.8 µg/mL (≈ 3.09 µM) | 1.8 µg/mL (≈ 3.09 µM) |  |  | COc1nc2ccccc2cc1C(c1ccc(-c2cccnc2)cc1)C(O)(CCCCN(C)C)c1ccc2ccccc2c1 (single isomer, unassigned) [Compound 7] | 1.8 µg/mL (≈ 3.09 µM) | 
1.97 µg/mL (≈ 3.16 µM) |  |  |  | COc1nc2ccc(Br)cc2cc1C(c1ccccc1)C(O)(CCCCCN(C)C)c1cccc(-c2ccccc2)c1 (single isomer, unassigned) [Compound 35] | 1.76 µg/mL (≈ 2.82 µM) | 
1.8 µg/mL (≈ 3.15 µM) | 2 µg/mL (≈ 3.5 µM) |  |  | COc1nc2ccccc2cc1C(c1ccc(-c2ccoc2)cc1)C(O)(CCCCN(C)C)c1ccc2ccccc2c1 (single isomer, unassigned) [Compound 12] | 1.8 µg/mL (≈ 3.15 µM) | 
1.97 µg/mL (≈ 3.16 µM) | 1.97 µg/mL (≈ 3.16 µM) |  |  | COc1nc2ccc(Br)cc2cc1C(c1ccccc1)C(O)(CCCCN(C)C)c1cccc(-c2ccc(C)cc2)c1 (single isomer, unassigned) [Compound 40] |  | 7.85 µg/mL (≈ 12.6 µM)
 |  | 1.8 µg/mL (≈ 3.09 µM) | 1.85 µg/mL (≈ 3.18 µM) | COc1nc2ccccc2cc1C(c1ccc(-c2cccnc2)cc1)C(O)(CCCCN(C)C)c1ccc2ccccc2c1 (single isomer, unassigned) [Compound 7b] |  | 1.5 µg/mL (≈ 2.58 µM)
 |  | 0.91 µg/mL (≈ 1.41 µM) | 0.72 µg/mL (≈ 1.12 µM) | COc1nc2ccc(Br)cc2cc1C(c1ccccc1)C(O)(CCCCN(C)C)c1cccc(-c2ccc(Cl)cc2)c1 (single isomer, unassigned) [Compound 34] |  | 1.29 µg/mL (≈ 2 µM)
 |  | 8.58 µg/mL (≈ 15.8 µM) |  | COc1nc2ccc(Br)cc2cc1C(c1ccoc1)C(O)(CCc1ccc(F)cc1)CCN(C)C (single isomer, unassigned) [Compound 54] |  | 1.92 µg/mL (≈ 3.55 µM)
1.93 µg/mL (≈ 3.17 µM) |  |  | 0.86 µg/mL (≈ 1.41 µM) | COc1nc2ccc(Br)cc2cc1C(c1ccccc1)C(O)(CCCCN(C)C)c1cccc(-c2ccccc2)c1 (single isomer, unassigned) [Compound 31] | 1.93 µg/mL (≈ 3.17 µM) | 
1.9 µg/mL (≈ 3.24 µM) | 2.3 µg/mL (≈ 3.92 µM) |  |  | COc1nc2ccccc2cc1C(c1ccc(-c2cccs2)cc1)C(O)(CCCCN(C)C)c1ccc2ccccc2c1 (single isomer, unassigned) [Compound 14] | 1.9 µg/mL (≈ 3.24 µM) | 
 |  | 3.1 µg/mL (≈ 5.64 µM) | 0.4 µg/mL (≈ 0.728 µM) | COc1nc2ccc(Br)cc2cc1C(c1ccc2c(c1)OCO2)C(O)(CCN(C)C)c1ccccc1 (single isomer, unassigned) [Compound 29] |  | 1.7 µg/mL (≈ 3.09 µM)
 |  | 1.9 µg/mL (≈ 3.24 µM) | 2.3 µg/mL (≈ 3.92 µM) | COc1nc2ccccc2cc1C(c1ccc(-c2cccs2)cc1)C(O)(CCCCN(C)C)c1ccc2ccccc2c1 (single isomer, unassigned) [Compound 15] |  | 
 |  | 4.4 µg/mL (≈ 7.11 µM) | 2.5 µg/mL (≈ 4.04 µM) | COc1nc2ccc(Br)cc2cc1C(c1ccccc1)C(O)(CCCCN1CCN(C)CC1)COc1ccccc1 (single isomer, unassigned) [Compound 19] |  | 2.0 µg/mL (≈ 3.23 µM)
 |  | 25.15 µg/mL (≈ 39.8 µM) |  | COc1nc2ccccc2cc1C(c1ccc(-c2cnc3ccccc3c2)cc1)C(O)(CCCCN(C)C)c1ccc2ccccc2c1 (single isomer, unassigned) [Compound 50] |  | 22.42 µg/mL (≈ 35.5 µM)
 |  | 1.97 µg/mL (≈ 3.16 µM) |  | COc1nc2ccc(Br)cc2cc1C(c1ccccc1)C(O)(CCCCCN(C)C)c1cccc(-c2ccccc2)c1 (single isomer, unassigned) [Compound 36] |  | 1.76 µg/mL (≈ 2.82 µM)

Continued, compound first:

Structure (SMILES) | IC90 [1] | IC90 [2] | IC90 values STA 1 B29213 [1] | IC90 values SPN 1 6305 [2] | IC90 (M. Smegmatis (ATCC607)) | IC90 values MSM 1 ATCC607 (M. Smegmatis (ATCC607))
COc1nc2ccc(Br)cc2cc1C(c1ccccc1)C(O)(CCCCCN(C)C)c1cccc(/C=C/c2ccccc2)c1 (single isomer, unassigned) [Compound 37] | 2.05 µg/mL (≈ 3.16 µM) |  |  |  | 1.63 µg/mL (≈ 2.51 µM) | 
COc1nc2ccc(Br)cc2cc1C(c1ccoc1)C(O)(CCN(C)C)c1ccccc1 (single isomer, unassigned) [Compound 52] |  |  | 49.54 µg/mL (≈ 100 µM) |  |  | 0.06 µg/mL (≈ 0.121 µM)
COc1nc2ccc(Br)cc2cc1C(c1ccccc1)C(O)(CCCCN(C)C)c1cccc(/C=C/c2ccccc2)c1 (stereo not drawn) [Compound 44] | 1.79 µg/mL (≈ 2.82 µM) |  |  |  |  | 0.90 µg/mL (≈ 1.42 µM)
COc1nc2ccccc2cc1C(c1ccc(-c2ccncc2)cc1)C(O)(CCCCN(C)C)c1ccc2ccccc2c1 (single isomer, unassigned) [Compound 43] |  |  | 4.60 µg/mL (≈ 7.91 µM) |  |  | 0.37 µg/mL (≈ 0.636 µM)
COc1nc2ccc(Br)cc2cc1C(c1ccc(Cl)cc1)C(O)(CCCCN(C)C)COc1ccccc1 (single isomer, unassigned) [Compound 3] |  |  | 9.5 µg/mL (≈ 15.9 µM) | 11.9 µg/mL (≈ 19.9 µM) | 1.7 µg/mL (≈ 2.84 µM) | 
COc1ccc(-c2cccc(C(O)(CCCCN(C)C)C(c3ccccc3)c3cc4cc(Br)ccc4nc3OC)c2)cc1 (single isomer, unassigned) [Compound 38] | 2.02 µg/mL (≈ 3.16 µM) | 2.02 µg/mL (≈ 3.16 µM) |  |  |  | 10.14 µg/mL (≈ 15.9 µM)
COc1nc2ccccc2cc1C(c1ccc(-c2cnn(C)c2)cc1)C(O)(CCCCN(C)C)c1ccc2ccccc2c1 (single isomer, unassigned) [Compound 11] |  |  | 1.9 µg/mL (≈ 3.25 µM) | 1.9 µg/mL (≈ 3.25 µM) |  | 1.9 µg/mL (≈ 3.25 µM)
COc1nc2ccc(Br)cc2cc1C(c1ccccc1)C(O)(CCCCN(C)C)c1cccc(/C=C/c2ccccc2)c1 (stereo not drawn) [Compound 45] |  |  | 2.01 µg/mL (≈ 3.16 µM) |  |  | 2.01 µg/mL (≈ 3.16 µM)
COc1nc2ccc(Br)cc2cc1C(c1ccccc1)C(O)(CCCCN(C)C)c1cccc(/C=C/c2ccccc2)c1 (stereo not drawn) [Compound 46] |  |  | 2.01 µg/mL (≈ 3.16 µM) |  |  | 2.01 µg/mL (≈ 3.16 µM)
COc1nc2ccc(Br)cc2cc1C(c1ccccc1)C(O)(CCCCN1CCN(C)CC1)COc1ccc(C)cc1 (single isomer, unassigned) [Compound 23] |  |  | 2.0 µg/mL (≈ 3.16 µM) | 2.0 µg/mL (≈ 3.16 µM) |  | 2.0 µg/mL (≈ 3.16 µM)
COc1nc2ccc(Br)cc2cc1C(c1ccccc1)C(O)(CCCCN1CCCCC1)COCc1ccccc1 (single isomer, unassigned) [Compound 25] |  |  | 2.5 µg/mL (≈ 4.05 µM) | 2.0 µg/mL (≈ 3.24 µM) |  | 2.0 µg/mL (≈ 3.24 µM)
COc1nc2ccccc2cc1C(c1ccc(-c2cnc3ccccc3c2)cc1)C(O)(CCCCN(C)C)c1ccc2ccccc2c1 (single isomer, unassigned) [Compound 49] |  |  | 2.00 µg/mL (≈ 3.17 µM) |  |  | 2.00 µg/mL (≈ 3.17 µM)
COc1nc2ccc(Br)cc2cc1C(c1ccccc1)C(O)(CCCCN(C)C)c1cccc(/C=C/c2ccccc2)c1 (stereo not drawn) [Compound 47] |  |  | 2.01 µg/mL (≈ 3.16 µM) |  |  | 2.01 µg/mL (≈ 3.16 µM)
COc1nc2ccc(Br)cc2cc1C(c1ccccc1)C(O)(CCCCN(C)C)c1cccc(-c2ccc(C)cc2)c1 (single isomer, unassigned) [Compound 42] |  |  | 2.21 µg/mL (≈ 3.54 µM) |  |  | 0.79 µg/mL (≈ 1.27 µM)
COc1nc2ccc(Br)cc2cc1C(c1ccoc1)C(O)(CCN(C)C)c1ccccc1 (single isomer, unassigned) [Compound 51] | 39.4 µg/mL (≈ 79.4 µM) |  |  |  |  | 1.57 µg/mL (≈ 3.17 µM)
